{"source": "patent US7582646B2", "about": "“Pyrimidine derivatives for treatment of hyperproliferative disorders” (Bayer Pharmaceuticals Corporation, priority 2003, dated 2009)", "key": {"HCT116 cells [1]": {"system": "HCT116 cells", "assay": "HCT116 cytotoxic activity assay (Alamar Blue, 72 h)", "settings": "Homo sapiens, HCT-116, read-out: IC50 in the HCT116 cytotoxic activity assay", "protocol": "(§1) Human tumor cells, e.g., HCT116 cells, are seeded in a 96-well plate at 3.0×10^3 cells/well and grown in 100 μl of RPMI complete media (Invitrogen Corporation, Grand Island, N.Y.) containing 10% fetal bovine serum (Hyclone, Logan, Utah) and 10 mM HEPES and at 37° C. for 16 h in an incubator with 5% CO2. To each well, 50 μl of additional growth media containing 20 μM to 60 nM concentrations of compound with 0.2% DMSO is added. Cells are grown for another 72 h at 37° C. 20 μl of Alamar Blue (Trek Diagnostic Systems, Inc., Cleveland, Ohio) reagent is added to each well and incubated for 4 h at 37° C. Plates are read in a SpectraMax Gemini (Molecular Devices, CA) with 544 nm excitation and 590 nm emission wavelength. IC50 values are determined by linear regression analysis of log drug concentration versus percent inhibition."}, "HCT116 cells [2]": {"system": "HCT116 cells", "protocol": "as §1"}}, "note": "Where a name gives a salt, the structure may show the parent alone. Read-outs that look alike come from different tables or passages of the source.", "data": [{"smiles": "NCc1cc(Oc2ccc(Nc3cc(-c4ccccc4)nc(N)n3)cc2)ccn1", "note": "[Example 39, N^4-(4-{[2-(aminomethyl)pyridin-4-yl]oxy}phenyl)-6-phenylpyrimidine-2,4-diamine]", "values": [{"measurement": "IC50", "setting": "HCT116 cells [1]", "result": "≤ 500", "unit": "nM"}]}, {"smiles": "COC[C@@H]1CCCN1C(=O)c1cc(Oc2ccc(Nc3cc(-c4ccccc4)nc(N)n3)cc2)ccn1", "note": "[Example 81, N4*-{4-[(2-{[(2S)-2-(methoxymethylpyrrolidin-1-yl]carbonyl}pyridin-4-yl)oxy]phenyl}-6-phenylpyrimidine-2,4-diamine trifluoroacetate]", "values": [{"measurement": "IC50", "setting": "HCT116 cells [1]", "result": "> 2000", "unit": "nM"}]}, {"smiles": "Nc1nc(Nc2ccc(Oc3ccnc(C(=O)N4CC[C@@H](O)C4)c3)cc2)cc(-c2ccccc2)n1", "note": "[Example 82, (3R)-1-[(4-{4-[(2-amino-6-phenylpyrimidin-4-yl)amino]phenoxy}pyridin-2-yl)carbonyl] pyrrolidin-3-ol trifluoroacetate (salt)]", "values": [{"measurement": "IC50", "setting": "HCT116 cells [1]", "result": "500 to 2000", "unit": "nM"}]}, {"smiles": "Cn1cnc(S(=O)(=O)NCc2cc(Oc3ccc(Nc4cc(-c5ccccc5)nc(N)n4)cc3)ccn2)c1", "note": "[Example 93, N-[(4-{4-[(2-amino-6-phenylpyrimidin-4-yl)amino]phenoxy}pyridin-2-yl)methyl]-1-methyl-1H-imidazole-4-sulfonamide trifluoroacetate]", "values": [{"measurement": "IC50", "setting": "HCT116 cells [1]", "result": "> 2000", "unit": "nM"}]}, {"smiles": "CCS(=O)(=O)NCc1cc(Oc2ccc(Nc3cc(-c4ccccc4)nc(N)n3)cc2)ccn1", "note": "[Example 94, N-[(4-{4-[(2-amino-6-phenylpyrimidin-4-yl)amino]phenoxy}pyridin-2-yl)methyl]ethanesulfonamide trifluoroacetate]", "values": [{"measurement": "IC50", "setting": "HCT116 cells [1]", "result": "≤ 500", "unit": "nM"}]}, {"smiles": "CC(C)S(=O)(=O)NCc1cc(Oc2ccc(Nc3cc(-c4ccccc4)nc(N)n3)cc2)ccn1", "note": "[Example 95, N-[(4-{4-[(2-amino-6-phenylpyrimidin-4-yl)amino]phenoxy}pyridin-2-yl)methyl]propane-2-sulfonamide trifluoroacetate]", "values": [{"measurement": "IC50", "setting": "HCT116 cells [1]", "result": "≤ 500", "unit": "nM"}]}, {"smiles": "Nc1nc(Nc2ccc(Oc3ccnc(CNS(=O)(=O)c4ccccc4)c3)cc2)cc(-c2ccccc2)n1", "note": "[Example 96, N-[(4-{4-[(2-amino-6-phenylpyrimidin-4-yl)amino]phenoxy}pyridin-2-yl)methyl]benzenesulfonamide trifluoroacetate]", "values": [{"measurement": "IC50", "setting": "HCT116 cells [1]", "result": "≤ 500", "unit": "nM"}]}, {"smiles": "COc1ccc(S(=O)(=O)NCc2cc(Oc3ccc(Nc4cc(-c5ccccc5)nc(N)n4)cc3)ccn2)cc1", "note": "[Example 97, N-[(4-{4-[(2-amino-6-phenylpyrimidin-4-yl)amino]phenoxy}pyridin-2-yl)methyl]-4-methoxybenzenesulfonamide trifluoroacetate]", "values": [{"measurement": "IC50", "setting": "HCT116 cells [1]", "result": "≤ 500", "unit": "nM"}]}, {"smiles": "Nc1nc(Nc2ccc(Oc3ccnc(CNS(=O)(=O)c4ccc(F)cc4)c3)cc2)cc(-c2ccccc2)n1", "note": "[Example 98, N-[(4-{4-[(2-amino-6-phenylpyrimidin-4-yl)amino]phenoxy}pyridin-2-yl)methyl]-4-fluorobenzenesulfonamide trifluoroacetate]", "values": [{"measurement": "IC50", "setting": "HCT116 cells [1]", "result": "≤ 500", "unit": "nM"}]}, {"smiles": "NC(=O)NCc1cc(Oc2ccc(Nc3cc(-c4ccccc4)nc(N)n3)cc2)ccn1", "note": "[Example 101, N-[(4-{4-[(2-amino-6-phenylpyrimidin-4-yl)amino]phenoxy}pyridin-2-yl)methyl]urea trifluoroacetate]", "values": [{"measurement": "IC50", "setting": "HCT116 cells [1]", "result": "500 to 2000", "unit": "nM"}]}, {"smiles": "Nc1nc(Nc2ccc(Oc3ccnc(NCc4ccccc4)c3)cc2)cc(-c2ccccc2)n1", "note": "[Example 132, N4*-(4-{[2-(benzylamino)pyridin-4-yl]oxy}phenyl)-6-phenyl-pyrimidine-2,4-diamine trifluoroacetate]", "values": [{"measurement": "IC50", "setting": "HCT116 cells [1]", "result": "500 to 2000", "unit": "nM"}]}, {"smiles": "NCC(=O)Nc1ccc(-c2cc(Nc3ccc(Oc4ccnc(C(F)(F)F)c4)cc3)nc(N)n2)cc1", "note": "[Example 151, N-(4-{2-amino-6-[(4-{[2-(trifluoromethyl)pyridin-4-yl]oxy}phe-nyl)amino]pyrimidin-4-yl}phenyl)glycinamide trifluoroacetate]", "values": [{"measurement": "IC50", "setting": "HCT116 cells [1]", "result": "≤ 500", "unit": "nM"}]}, {"smiles": "NCCCC(=O)Nc1ccc(-c2cc(Nc3ccc(Oc4ccnc(C(F)(F)F)c4)cc3)nc(N)n2)cc1", "note": "[Example 152, 4-amino-N-(4-{2-amino-6-[(4-{[2-(trifluoromethyl)pyridin-4-yl]oxy}phe-nyl)amino]pyrimidin-4-yl}phenyl)butanamide trifluoroacetate]", "values": [{"measurement": "IC50", "setting": "HCT116 cells [1]", "result": "500 to 2000", "unit": "nM"}]}, {"smiles": "COc1cc(-c2cc(Nc3ccc(Oc4ccnc(C#N)c4)cc3)nc(N)n2)ccc1N", "note": "[Example 179, 4-(4-{[2-amino-6-(4-amino-3-methoxyphenyl)pyrimidin-4-yl]a-mino}phenoxy)pyridine-2-carbonitrile trifluoroacetate]", "values": [{"measurement": "IC50", "setting": "HCT116 cells [1]", "result": "≤ 500", "unit": "nM"}]}, {"smiles": "N#CCc1ccc(-c2cc(Nc3cccc(Oc4ccnc(C(N)=O)c4)c3)nc(N)n2)cc1", "note": "[Example 294, 4-[3-({2-amino-6-[4-(cyanomethyl)phenyl]pyrimidin-4-yl}amino)phenoxy] pyridine-2-carboxamide]", "values": [{"measurement": "IC50", "setting": "HCT116 cells [2]", "result": "500 to 2000", "unit": "nM"}]}]}
